Reference: US8008487B2, “Substituted thieno[2,3-D]pyrimidines as fungicides” (priority 2004, dated 2011)

Assays:
Cochliobolus sativus = test: Spot Blotch of Wheat (COCHSA), whole-plant fungicide test; format: in vivo; details: Bipolaris sorokiniana, 24 h, one-day protectant test, read-out: COCHSA percent control of disease; for pest or weed control at 200 ppm: foliar, 200 ppm on foliage
In short: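 Wheat seedlings (3-8 per pot) sprayed to wet with compound at 200 ppm (sometimes 100, 75 or 8.3 ppm) in 10% acetone/Triton X100 water, ~1500 L/ha. Inoculated with C. sativus spores next day (1DP) or two days before spraying (2DC), held humid 1-2 days, then greenhouse; disease severity converted to percent control versus untreated inoculated plants.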

Colletotricum lagenarium = test: Cucumber Anthracnose (COLLLA), whole-plant fungicide test; format: in vivo; details: Cucumis sativus, foliar, 24 h, 200 ppm on foliage, one-day protectant test, read-out: COLLLA percent control of disease
Erysiphe cichoracaerum = test: Cucumber Powdery Mildew (ERYSCI), whole-plant fungicide test; format: in vivo; details: 200 ppm on foliage, one-day protectant test; for pest or weed control at 200 ppm: Erysiphe, foliar, 24 h, read-out: ERYSCI percent control of disease
[1] = system: Erysiphe graminis f. sp. tritici; test: Powdery Mildew of Wheat (ERYSGT), whole-plant fungicide test; format: in vivo; details: Blumeria graminis, 24 h, one-day protectant test, read-out: ERYSGT percent control of disease; for pest or weed control at 200 ppm: foliar, 200 ppm on foliage
Leptosphaeria nodorum = test: Glume Blotch of Wheat (LEPTNO), whole-plant fungicide test; format: in vivo; details: Parastagonospora nodorum, foliar, 24 h, 200 ppm on foliage, one-day protectant test, read-out: LEPTNO percent control of disease
Phytophthora infestans = test: whole plant or invertebrate; format: in vivo; details: Phytophthora infestans, in Solanum lycopersicum, foliar, 24 h, read-out: PHYTIN percent control of disease, 200 ppm on foliage, tomato, one-day protectant test
[2] = system: Puccinia recondita tritici; test: Leaf Rust of Wheat (PUCCRT), whole-plant fungicide test; format: in vivo; details: 200 ppm on foliage, one-day protectant test; for pest or weed control at 200 ppm: Puccinia recondita, foliar, 24 h, read-out: PUCCRT percent control of disease
Magnaporthe grisea = test: whole plant or invertebrate; format: in vivo; details: for pest or weed control at 200 ppm: Pyricularia oryzae, in Oryza sativa, foliar, 24 h, read-out: PYRIOR percent control of disease, 200 ppm on foliage, rice, one-day protectant test
Septoria tritici = test: Speckled Leaf Blotch of Wheat (SEPTTR), whole-plant fungicide test; format: in vivo; details: Zymoseptoria tritici, 24 h, one-day protectant test, read-out: SEPTTR percent control of disease; for pest or weed control at 200 ppm: foliar, 200 ppm on foliage

| Compound | pest or weed control at 200 ppm (Cochliobolus sativus) [%] | pest or weed control at 200 ppm (Colletotricum lagenarium) [%] | pest or weed control at 200 ppm (Erysiphe cichoracaerum) [%] | pest or weed control at 200 ppm [1] [%] | pest or weed control at 200 ppm (Leptosphaeria nodorum) [%] | pest or weed control at 200 ppm (Phytophthora infestans) [%] | pest or weed control at 200 ppm [2] [%] | pest or weed control at 200 ppm (Magnaporthe grisea) [%] | pest or weed control at 200 ppm (Septoria tritici) [%] | melting point [°C] | ERYSCI percent control of disease (Erysiphe cichoracaerum) | PUCCRT percent control of disease [2] | PYRIOR percent control of disease (Magnaporthe grisea; 200 ppm on foliage, rice, one-day protectant test) | pest or weed control at 100 ppm (Cochliobolus sativus; 100 ppm (footnote a)) [%] | pest or weed control at 100 ppm ([1]; 100 ppm (footnote a)) [%] | pest or weed control at 100 ppm (Septoria tritici; 100 ppm (footnote a)) [%] |
| --- | --- | --- | --- | --- | --- | --- | --- | --- | --- | --- | --- | --- | --- | --- | --- | --- |
| OCC(Cc1ccccc1)Nc1ncnc2scc(Cl)c12 (centres unmarked) [Compound 31] | 0 to 49 | 0 to 49 | 80 to 100 | 0 to 49 | 0 to 49 | 80 to 100 | 80 to 100 | 80 to 100 | 0 to 49 | 104 to 105 | – | – | – | – | – | – |
| OCC(Nc1ncnc2scc(Cl)c12)c1ccccc1 (centres unmarked) [Compound 30] | 0 to 49 | 0 to 49 | – | 0 to 49 | 0 to 49 | 0 to 49 | – | – | 0 to 49 | 120 | *** (*** is 80-100 percent control of disease) | *** (*** is 80-100 percent control of disease) | *** (*** is 80-100 percent control of disease) | – | – | – |
| O[C@@H](CNc1ncnc2scc(Cl)c12)c1ccccc1 [Compound 32] | 0 to 49 | 0 to 49 | 0 to 49 | 0 to 49 | 0 to 49 | 0 to 49 | 80 to 100 | 80 to 100 | 0 to 49 | 111 to 112 | – | – | – | – | – | – |
| Clc1csc2ncnc(C3Cc4ccccc4C3)c12 [Compound 17] | 50 to 79 | 0 to 49 | 0 to 49 | 0 to 49 | 0 to 49 | 0 to 49 | 0 to 49 | 0 to 49 | 0 to 49 | – | – | – | – | – | – | – |
| CC(Nc1ncnc2scc(Cl)c12)c1cc[nH]c1 (centres unmarked) [Compound 15] | 0 to 49 | 0 to 49 | 0 to 49 | 0 to 49 | 0 to 49 | 0 to 49 | 80 to 100 | 50 to 79 | 0 to 49 | – | – | – | – | – | – | – |
| CC(COc1ccc(C(F)(F)F)cn1)Nc1ncnc2scc(Cl)c12 (centres unmarked) [Compound 18, 5-chloro-N-(1-methyl-2-{[5-(trifluoromethyl)pyridin-2-yl]oxy}ethyl)thieno [2,3-d]pyrimidin-4-amine] | 0 to 49 | 0 to 49 | 80 to 100 | 80 to 100 | 80 to 100 | 80 to 100 | 80 to 100 | 80 to 100 | 80 to 100 | – | – | – | – | – | – | – |
| CC(Nc1ncnc2scc(Cl)c12)c1cccn1C (centres unmarked) [Compound 13] | 0 to 49 | 0 to 49 | 0 to 49 | 0 to 49 | 0 to 49 | 0 to 49 | 0 to 49 | 50 to 79 | 0 to 49 | – | – | – | – | – | – | – |
| CC(Nc1ncnc2scc(Cl)c12)c1ccn(C(C)C)c1 (centres unmarked) [Compound 16] | 50 to 79 | 0 to 49 | 0 to 49 | 0 to 49 | 0 to 49 | 0 to 49 | 0 to 49 | 50 to 79 | 0 to 49 | – | – | – | – | – | – | – |
| Clc1csc2ncnc(NC3Cc4ccccc4C3)c12 [Compound 9] | 80 to 100 | 0 to 49 | 80 to 100 | 0 to 49 | 50 to 79 | 80 to 100 | 80 to 100 | 80 to 100 | 0 to 49 | – | – | – | – | – | – | – |
| CC(Nc1ncnc2scc(Cl)c12)c1ccc(OCc2ccccc2)cn1 (centres unmarked) [Compound 35] | 0 to 49 | 80 to 100 | 50 to 79 | 0 to 49 | 50 to 79 | 50 to 79 | 80 to 100 | 80 to 100 | 50 to 79 | – | – | – | – | – | – | – |
| CC(Nc1ncnc2scc(Cl)c12)c1ccc(OCl)nc1 (centres unmarked) [Compound 29] | – | 0 to 49 | 80 to 100 | – | 80 to 100 | 80 to 100 | 80 to 100 | 80 to 100 | – | – | – | – | – | 0 to 49 | 80 to 100 | 50 to 79 |
| CCOC(=O)c1sc2ncnc(NC(C)c3ccc(OC)cc3)c2c1O (centres unmarked) [Compound 52, 5-Hydroxy-4-[1-(4-methoxyphenyl)ethylamino]thieno[2,3-d]pyrimidine-6-carboxylic Acid Ethyl Ester] | 0 to 49 | 0 to 49 | – | – | 0 to 49 | 0 to 49 | 0 to 49 | 0 to 49 | 50 to 79 | 151 to 152 | – | – | – | – | – | – |
| CC(Nc1ncnc2scc(Cl)c12)c1ccc(OCC(F)(F)F)nc1 (centres unmarked) [Compound 38] | 0 to 49 | 0 to 49 | 80 to 100 | 80 to 100 | 50 to 79 | 80 to 100 | 80 to 100 | 80 to 100 | 50 to 79 | – | – | – | – | – | – | – |
| CC(Nc1ncnc2scc(Cl)c12)c1ccc(C(F)(F)F)cn1 (centres unmarked) [Compound 19] | 80 to 100 | 0 to 49 | 0 to 49 | 50 to 79 | 50 to 79 | 0 to 49 | 50 to 79 | 80 to 100 | 50 to 79 | – | – | – | – | – | – | – |
| CCOc1ccc(C(C)Nc2ncnc3scc(Cl)c23)cn1 (centres unmarked) [Compound 39] | 0 to 49 | 0 to 49 | 80 to 100 | 80 to 100 | 80 to 100 | 50 to 79 | 80 to 100 | 80 to 100 | 80 to 100 | – | – | – | – | – | – | – |
| CC(Nc1ncnc2scc(Cl)c12)c1ccc[nH]1 (centres unmarked) [Compound 11] | 0 to 49 | 0 to 49 | 0 to 49 | 0 to 49 | 50 to 79 | 0 to 49 | 50 to 79 | 50 to 79 | 50 to 79 | – | – | – | – | – | – | – |
| CC(Nc1ncnc2scc(Cl)c12)c1ccn(C)c1 (centres unmarked) [Compound 12] | 0 to 49 | 0 to 49 | 0 to 49 | 0 to 49 | 50 to 79 | 80 to 100 | 50 to 79 | 80 to 100 | 0 to 49 | – | – | – | – | – | – | – |
| CC(COc1ccccn1)Nc1ncnc2scc(Cl)c12 (centres unmarked) [Compound 37, 5-(chlorothieno[2,3-d]pyrimidin-4-yl)-[1-methyl-2-(pyridin-2-yloxy)ethyl]amine] | 0 to 49 | 0 to 49 | 80 to 100 | 50 to 79 | 80 to 100 | 0 to 49 | 80 to 100 | 80 to 100 | 0 to 49 | – | – | – | – | – | – | – |
